According to patent US5834491A, “Bis(2-aminopyridine)s, preparation method therefor and use thereof for controlling parasitic infections” (priority 1994, dated 1998):
pIC50: −log10 of the molar value. Where a name gives a salt, the structure may show the parent alone. Read-outs that look alike come from different tables or passages of the source.

Key:
[1] = Semi-chronic toxicity in vivo; conditions: mouse, mice
Plasmodium falciparum = test: Antimalarial activity in vitro towards Plasmodium falciparum ([3H]hypoxanthine incorporation, infected human erythrocytes); format: cell-based; conditions: Erythrocyte, approximately 48 hours; for IC50 upper bound (active at tested concentration): Table I
Method: Evaluation of the antimalarial activity in vitro is carried out according to the method of DESJARDINS, CANFIELD, HATNES and CHULAY (Antimicrob. Agents Chemother., 1979, 16, 710-718). A compound according to the invention is brought into contact for approximately 48 hours with human erythrocytes infected with Plasmodium falciparum. When a radioactive nucleic acid precursor, hypoxanthine, is added to the preparation, only erythrocytes infected with Plasmodium and not affected by the said compound incorporate this precursor. […] The results are presented in Table I below, in the form of an IC50 (or ED50) (concentration of compound capable of inhibiting in vitro the growth of the parasites by 50%).
The derivatives according to the above examples are tested at three concentrations, 100, 33 and 10 nanomolar.

[2] = tested on: biosynthesis of phosphatidylcholine; test: Specificity towards phosphatidylcholine biosynthesis relative to other macromolecules (radiolabelled precursor incorporation); format: cell-based; conditions: relative to nucleic acids, proteins, other phospholipids
Method: Verification of the mechanism of action is carried out on the various derivatives according to the invention by studying the specific interference with phospholipid biosynthesis and measuring the biosynthesis of the different biomolecules, nucleic acids, proteins and phospholipids, on the basis of the incorporation of radiolabelled precursors, [^3 H]hypoxanthine (see above), [^3 H]isoleucine and [^3 H]choline. The specificity in the precise realm of phospholipid metabolism is determined by comparison with the effect on the incorporation of [^3 H]ethanolamine into phosphatidylethanolamine (Ancelin M. L., Vialettes F. and Vial H. J., 1991, Anal. Biochem., 199, 203-209).

[3] = tested on: Plasmodium vinckei, petteri or chabaudi; test: Antimalarial activity in vivo, infected mice, 4 days; set-up: species or system petteri or chabaudi (male Swiss mice); conditions: ip, I.P., twice daily for 4 consecutive days
Method: This activity is measured according to the test described by PETERS W. (Chemotherapy and Drug resistance in Malaria, 1970). A compound according to the invention is administered for 4 consecutive days to mice infected beforehand with malaria using Plasmodium vinckei, petteri or chabaudi.
The said compound is dissolved in 0.9% aqueous NaCl solution or, where appropriate, in 10% aqueous gum arabic solution. The preparations are thus administered intraperitoneally or subcutaneously to male Swiss mice of average weight 30 to 40 g which have been infected beforehand intravenously with Plasmodium petterei or P. chabaudi (10^6 infected cells). The compound is administered twice daily for 4 consecutive days, the first injection being performed 2 hours after infestation, and the second 10 hours after. The parasitaemia is determined by means of a smear on the day following the end of the treatment.
The results are collated in Table II, in the form of an ED50 (dose of compound administered in vivo capable of a 50% inhibition of the growth of the parasites).

Babesia [4] = conditions: McColm 1984; cited from earlier work
Babesia [5] = conditions: cited from earlier work
Babesia [6] = conditions: cited from earlier work; remark: listed apart in the source

Row | Compound | resistance of Babesia (Babesia [4]) | activity in vitro against Babesia (Babesia [5]) | results in vivo against Babesia (Babesia [6]) | further results
1 | Cc1ccn(CCCCCCCCCCCCn2ccc(C)cc2=N)c(=N)c1 [Example 1, 1,1'-(1,12-dodecanediyl)bis(4-methyl-2(1H)-pyridinimine) dihydrobromide] |  |  |  | LD50 ([1]; ip, I.P., 2 injections daily for four days, read-out: Toxicity LD50 I.P.): 30 mg/kg; LD50 ([1]; po, P.O., semi-chronic, four days, read-out: Toxicity LD50 P.O.): 365 mg/kg; IC50 upper bound (active at tested concentration) (Plasmodium falciparum; 33 nM, read-out: Plasmodium IC50 in vitro resp. at 33 nM): < 33 nM; IC50 upper bound (active at tested concentration) (Plasmodium falciparum; 100 nM, read-out: Plasmodium IC50 in vitro resp. 100 nM): < 100 nM; pIC50 (Plasmodium falciparum; Table II): 9.30; specificity of action towards the biosynthesis of phosphatidylcholine, relative to the biosyntheses of the other macromolecules [2]: best specificity of action towards the biosynthesis of phosphatidylcholine; ED50 [3]: 1.2 mg/kg
2 | CO[C@H]1/C=C/O[C@@]2(C)Oc3c(C)c(O)c4c(O)c(cc(O)c4c3C2=O)NC(=O)/C(C)=C\C=C\[C@H](C)[C@H](O)[C@@H](C)[C@@H](O)[C@@H](C)[C@H](OC(C)=O)[C@@H]1C [rifamycin] | increased resistance |  |  | 
3 | CN(C)C1C(=O)C(C(N)=O)=C(O)C2(O)C(=O)C3=C(O)c4c(O)cccc4C(C)(O)C3CC12 (centres unmarked) [tetracycline] |  | active in vitro | without, however, giving good results in vivo | 
4 | Nc1ncnc2c1ccn2[C@@H]1O[C@H](CO)[C@@H](O)[C@H]1O [tubercidin] |  | active in vitro | without, however, giving good results in vivo | 
5 | CC[C@H]1OC(=O)C[C@@H](O)[C@H](C)[C@@H](O[C@@H]2O[C@H](C)[C@@H](O[C@H]3C[C@@](C)(O)[C@@H](O)[C@H](C)O3)[C@H](N(C)C)[C@H]2O)[C@@H](CC=O)C[C@@H](C)C(=O)/C=C/C(C)=C/[C@@H]1CO[C@@H]1O[C@H](C)[C@@H](O)[C@@H](OC)[C@H]1OC [tylosin] | increased resistance |  |  | 
6 | gramicidin D | increased resistance |  |  | 
